The NIST ThermoML archive (doi:10.1016/j.jct.2010.08.016)

Experiment: xn = mol fraction of the nth substance listed
Conditions: 101 kPa, Liquid; for mass density: Vibrating tube method; for electrical conductivity: Alternating current cell with electrodes

NC(CO)(CO)CO [2-amino-2-(hydroxymethyl)-1,3-propanediol] + O
Conditions	electrical conductivity [S/m]	mass density [kg/m3]
303.15 K, x1 = 0.01	–	1019.5
303.15 K, x1 = 0.02	–	1033.6
303.15 K, x1 = 0.03	–	1046.2
303.15 K, x1 = 0.04	–	1053.3
303.15 K, x1 = 0.05	–	1070.3
303.15 K, x1 = 0.06	–	1076.2
303.15 K, x1 = 0.07	–	1086.3
313.15 K, x1 = 0.01	0.0241	1016
313.15 K, x1 = 0.02	0.0287	1029.9
313.15 K, x1 = 0.03	0.031	1042.4
313.15 K, x1 = 0.04	0.0318	1049.3
313.15 K, x1 = 0.05	0.0341	1066.1
313.15 K, x1 = 0.06	0.0341	1071.8
313.15 K, x1 = 0.07	0.03	1081.8
323.15 K, x1 = 0.01	0.0287	1011.6
323.15 K, x1 = 0.02	0.0346	1025.5
323.15 K, x1 = 0.03	0.0373	1037.8
323.15 K, x1 = 0.04	0.0385	1044.7
323.15 K, x1 = 0.05	0.0411	1061.3
323.15 K, x1 = 0.06	0.0411	1067
323.15 K, x1 = 0.07	0.0367	1076.9
333.15 K, x1 = 0.01	0.0333	1006
333.15 K, x1 = 0.02	0.0403	1020
333.15 K, x1 = 0.03	0.0435	1032.7
333.15 K, x1 = 0.04	0.0452	1039.6
333.15 K, x1 = 0.05	0.0482	1056
333.15 K, x1 = 0.06	0.0482	1061.7
333.15 K, x1 = 0.07	0.0435	1071.4
343.15 K, x1 = 0.01	0.0378	998.9
343.15 K, x1 = 0.02	0.046	1013.2
343.15 K, x1 = 0.03	0.0497	1027
343.15 K, x1 = 0.04	0.0518	1033.9
343.15 K, x1 = 0.05	0.0552	1050.2
343.15 K, x1 = 0.06	0.0552	1055.9
343.15 K, x1 = 0.07	0.0503	1065.6
353.15 K, x1 = 0.01	0.0423	989.9
353.15 K, x1 = 0.02	0.0514	1004.9
353.15 K, x1 = 0.03	0.0555	1020.8
353.15 K, x1 = 0.04	0.0579	1027.6
353.15 K, x1 = 0.05	0.0619	1044
353.15 K, x1 = 0.06	0.0619	1049.5
353.15 K, x1 = 0.07	0.0567	1059.2
